# Source: paper PMC5733122, “Purification, Characterization, and Mode of Action of Pentocin JL-1, a Novel Bacteriocin Isolated from Lactobacillus pentosus, against Drug-Resistant Staphylococcus aureus” (BioMed Research International, 2017)
# Experiments:
# [1] = test system: Bacillus subtilis CGMCC1.1627; experiment: Agar-well diffusion test; format: cell-based
# Experimental: (§1) The intestinal tracts of C. punctatum (grey carpet shark) were dissected and homogenized in 20 mL saline solution under sterile conditions and were then plated in serial dilutions in deMan, Rogosa, and Sharpe (MRS) medium. The plates were incubated aerobically at 30°C for 24 h. Several colonies were picked at random and incubated again in MRS broth. For screening for bacteriocin-producing strains, the agar-well diffusion test was used to detect antimicrobial activity in cell-free supernatants (filtered through a 0.22 μm Millipore filter) obtained by centrifugation (10,000g, 30 min, 4°C) after 18, 36, 60, and 72 h incubation. The Gram-positive strain MRSA GIM 1.771 and the Gram-negative strain Escherichia coli O157:H7 GIM 1.707 were used as indicator strains. Before the experiments, the indicator strains were grown to 10^6 CFU/mL. Then, 1 mL of the culture was mixed with 100 mL soft agar medium and poured onto individual Petri dishes. Subsequently, 8 mm diameter wells were punched onto the plates, and each well was filled with 100 μL of the cell-free supernatants under sterile conditions. The plates were incubated overnight at their respective optimum temperatures, and the clear zones of inhibition were measured in diameter and indicated the presence of antimicrobial activity. In our study, all bacteria culture media and chemical reagents were supplied by Sigma-Aldrich (USA).
# (§2) The agar-well diffusion test as described previously was used to detect the antimicrobial activity of the purified pentocin JL-1 (15 μg/mL, pH 5.5). LAB strains were grown in MRS broth at 30°C for 16 h. Other Gram-positive indicator strains were grown in Tryptone Soy Broth (TSB) medium at 37°C and the Gram-negative indicator strains were grown in Luria-Bertani broth medium at 37°C.
# [2] = test system: Listeria monocytogenes ATCC19112; experiment: Agar-well diffusion test; format: cell-based
# Experimental: as §1, §2
# [3] = test system: Micrococcus luteus CGMCC1.2299; experiment: Agar-well diffusion test; format: cell-based
# Experimental: as §1, §2
# [4] = test system: Multidrug-resistant S. aureus 2; experiment: Agar-well diffusion test; format: cell-based; conditions: 15 μg/mL, pH 5.5, pork isolate resistant to FOX, GEN, mean ± SD, triplicate
# Experimental: as §1, §2
# [5] = test system: Multidrug-resistant S. aureus 3; experiment: Agar-well diffusion test; format: cell-based; conditions: 15 μg/mL, pH 5.5, pork isolate resistant to FOX, TET, GEN, mean ± SD, triplicate
# Experimental: as §1, §2
# [6] = test system: Multidrug-resistant S. aureus 4; experiment: Agar-well diffusion test; format: cell-based; conditions: 15 μg/mL, pH 5.5, pork isolate resistant to FOX, TET, C, mean ± SD, triplicate
# Experimental: as §1, §2
# [7] = test system: Multidrug-resistant S. aureus 5; experiment: Agar-well diffusion test; format: cell-based; conditions: 15 μg/mL, pH 5.5, pork isolate resistant to FOX, TET, GEN, C, mean ± SD, triplicate
# Experimental: as §1, §2
# [8] = test system: Pseudomonas aeruginosa CGMCC1.1785; experiment: Agar-well diffusion test; format: cell-based
# Experimental: as §1, §2
# MRSA GIM1.771 = experiment: Agar-well diffusion test; format: cell-based, Staphylococcus aureus; conditions: pH 5.5
# Experimental: as §1, §2
# (§3) The residual antibacterial activities of the above samples were calculated using the agar-well diffusion test with MRSA GIM 1.771 as the indicator strain. […] Lyophilized pentocin JL-1 dissolved in 0.05% (w/v) acetic acid at 15 μg/mL with pH 5.5 was used as a control in all assays.
# [9] = pH stability, residual antibacterial activity; format: physicochemical; conditions: 1 h; for Residual inhibitory activity (inhibition zone diameter, mm): 15 μg/mL in 0.05% acetic acid, agar-well diffusion vs MRSA GIM 1.771, mean ± SD, triplicate; for Residual inhibitory activity (inhibition zone diameter, mm) / Residual inhibitory activity (%): readjusted to pH 5.5; for Residual inhibitory activity (%): 15 μg/mL, vs MRSA GIM 1.771, relative to control pH 5.5
# Experimental: To determine pH stability, lyophilized purified pentocin JL-1 was dissolved in 0.05% (w/v) acetic acid at 15 μg/mL and was adjusted with 1.0 M HCl or 1.0 M NaOH to different pH values of 2.0, 3.0, 4.0, 5.0, 6.0, 7.0, 8.0, 9.0, and 10.0. Then the above samples were incubated at 37°C for 1 h and were adjusted to pH 5.5 with 1.0 M HCl or 1.0 M NaOH.
# as §3
# proteinase K = target: T1, proteinase K (Parengyodontium album, UniProt P06873); experiment: Enzymatic sensitivity, residual antibacterial activity; format: in vitro ADME; conditions: 1 h
# T1 construct: purchased Sigma-Aldrich
# Experimental: […] After incubation for 1 h, the bacteriocin-enzyme mixture was boiled for 5 min to inactivate the enzymes.
# as §3
# alkaline protease = experiment: as above; format: in vitro ADME; conditions: 1 h
# Experimental: (§4) To determine enzymatic sensitivity, lyophilized purified pentocin JL-1 dissolved in 0.05% (w/v) acetic acid at 15 μg/mL was treated with the following enzymes at 75 μg/mL under their respective optimum pH and temperatures: proteinase K (pH 7.5, 37°C), trypsin (pH 8.0, 37°C), pepsin (pH 2.0, 37°C), and alkaline protease (pH 8.6, 50°C) (all from Sigma-Aldrich, USA). After incubation for 1 h, the bacteriocin-enzyme mixture was boiled for 5 min to inactivate the enzymes.
# as §3
# pepsin = target: T2, pepsin (Sus scrofa, UniProt P00791); experiment: as above; format: in vitro ADME; conditions: Pepsin 75 μg/mL (pH 1.8, 37°C), 1 h, pentocin JL-1 15 μg/mL
# T2 construct: purchased Sigma-Aldrich
# Experimental: as §4, §3
# [10] = purified pentocin JL-1 15 μg/mL, pH 5.5, inhibition zone diameter class incl. 8 mm well
# T1 sequence (P06873 106-384): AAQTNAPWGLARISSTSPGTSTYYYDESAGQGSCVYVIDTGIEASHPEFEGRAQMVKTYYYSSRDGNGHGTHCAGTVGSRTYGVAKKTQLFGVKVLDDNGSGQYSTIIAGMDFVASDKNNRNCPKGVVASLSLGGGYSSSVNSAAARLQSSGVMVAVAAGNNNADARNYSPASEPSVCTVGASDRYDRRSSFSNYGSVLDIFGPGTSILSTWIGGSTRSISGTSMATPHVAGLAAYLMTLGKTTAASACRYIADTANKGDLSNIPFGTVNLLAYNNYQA
# T2 sequence (P00791 60-385): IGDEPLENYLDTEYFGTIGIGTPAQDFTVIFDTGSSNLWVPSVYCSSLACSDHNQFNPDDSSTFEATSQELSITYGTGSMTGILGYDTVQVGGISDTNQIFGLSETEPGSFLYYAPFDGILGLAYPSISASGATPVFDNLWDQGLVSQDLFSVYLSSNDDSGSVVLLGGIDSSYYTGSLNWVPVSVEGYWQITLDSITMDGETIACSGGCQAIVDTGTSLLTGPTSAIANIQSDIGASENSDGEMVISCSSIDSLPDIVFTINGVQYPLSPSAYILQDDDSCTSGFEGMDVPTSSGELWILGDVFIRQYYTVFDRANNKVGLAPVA
substance,measurement,setting,value
"VAKVAR [pentocin JL-1, novel bacteriocin produced by Lactobacillus pentosus JL-1, purified by four-step chromatography, molecular mass 2987.23 Da, cationic and hydrophobic peptide]",inhibitory activity,"[1]; 15 μg/mL, pH 5.5",inhibited
same,Antimicrobial activity,[1]; [10],++ (++: 15–19)
same,inhibitory activity,"[2]; 15 μg/mL, pH 5.5",inhibited
same,Antimicrobial activity,[2]; [10],++ (++: 15–19)
same,inhibitory activity,"[3]; 15 μg/mL, pH 5.5",inhibited
same,Antimicrobial activity,[3]; [10],++ (++: 15–19)
same,Inhibitor zone,[4],22.5 ± 1.2 mm
same,Inhibitor zone,[5],24.3 ± 0.7 mm
same,Inhibitor zone,[6],22.4 ± 0.6 mm
same,Inhibitor zone,[7],23.9 ± 1.5 mm
same,inhibitory activity,"[8]; 15 μg/mL, pH 5.5",inhibited
same,Antimicrobial activity,[8]; [10],+ (+: 10–14)
same,Residual inhibitory activity (%),MRSA GIM1.771; Control: untreated pentocin JL-1 15 μg/mL in 0.05% (w/v) acetic acid,100.00%
same,"Residual inhibitory activity (inhibition zone diameter, mm)","MRSA GIM1.771; Control: untreated pentocin JL-1 15 μg/mL in 0.05% (w/v) acetic acid, mean ± SD, triplicate",23.9 ± 0.7 mm
same,Antimicrobial activity,"MRSA GIM1.771; agar-well diffusion, purified pentocin JL-1 15 μg/mL, inhibition zone diameter class incl. 8 mm well",+++ (+++: 20–25)
same,pH range tolerated / stable,"[9]; 37°C, no significant differences in antimicrobial activity (p > 0.05)",5–7
same,"Residual inhibitory activity (inhibition zone diameter, mm)","[9]; pH 2.0, 37°C",15.7 ± 1.4 mm
same,Residual inhibitory activity (%),"[9]; pH 2.0, 37°C",65.69^∗ %
same,"Residual inhibitory activity (inhibition zone diameter, mm)","[9]; pH 3.0, 37°C",16.2 ± 1.8 mm
same,Residual inhibitory activity (%),"[9]; pH 3.0, 37°C",67.78^∗ %
same,"Residual inhibitory activity (inhibition zone diameter, mm)","[9]; pH 4.0, 37°C",16.8 ± 1.2 mm
same,Residual inhibitory activity (%),"[9]; pH 4.0, 37°C",70.29^∗ %
same,"Residual inhibitory activity (inhibition zone diameter, mm)","[9]; pH 5.0, 37°C",23.9 ± 0.4 mm
same,Residual inhibitory activity (%),"[9]; pH 5.0, 37°C",100.00%
same,"Residual inhibitory activity (inhibition zone diameter, mm)","[9]; pH 6.0, 37°C",23.9 ± 0.8 mm
same,Residual inhibitory activity (%),"[9]; pH 6.0, 37°C",100.00%
same,"Residual inhibitory activity (inhibition zone diameter, mm)","[9]; pH 7.0, 37°C",23.6 ± 0.6 mm
same,Residual inhibitory activity (%),"[9]; pH 7.0, 37°C",98.74%
same,"Residual inhibitory activity (inhibition zone diameter, mm)","[9]; pH 8.0, 37°C",14.6 ± 0.3 mm
same,Residual inhibitory activity (%),"[9]; pH 8.0, 37°C",61.09^∗ %
same,"Residual inhibitory activity (inhibition zone diameter, mm)","[9]; pH 9.0, 37°C",12.9 ± 0.9 mm
same,Residual inhibitory activity (%),"[9]; pH 9.0, 37°C",53.97^∗ %
same,"Residual inhibitory activity (inhibition zone diameter, mm)","[9]; pH 10.0, 37°C",12.5 ± 1.6 mm
same,Residual inhibitory activity (%),"[9]; pH 10.0, 37°C",52.30^∗ %
same,"Residual inhibitory activity (inhibition zone diameter, mm)","proteinase K; Proteinase K 75 μg/mL (pH 7.5, 55°C), then boiled 5 min, pentocin JL-1 15 μg/mL, agar-well diffusion vs MRSA GIM 1.771, mean ± SD, triplicate",17.3 ± 1.2 mm
same,Residual inhibitory activity (%),"proteinase K; Proteinase K 75 μg/mL (pH 7.5, 55°C), pentocin JL-1 15 μg/mL, vs MRSA GIM 1.771, relative to control",72.38^∗ %
same,inhibitory action after enzyme treatment,"proteinase K; proteinase K 75 μg/mL, p < 0.05",significantly reduced
same,"Residual inhibitory activity (inhibition zone diameter, mm)","alkaline protease; Alkaline protease 75 μg/mL (pH 8.6, 50°C), then boiled 5 min, pentocin JL-1 15 μg/mL, agar-well diffusion vs MRSA GIM 1.771, mean ± SD, triplicate",0.0 ± 0.0 mm
same,Residual inhibitory activity (%),"alkaline protease; Alkaline protease 75 μg/mL (pH 8.6, 50°C), pentocin JL-1 15 μg/mL, vs MRSA GIM 1.771, relative to control",0.00^∗ %
same,inhibitory action after enzyme treatment,alkaline protease; alkaline protease 75 μg/mL,completely abolished
same,"Residual inhibitory activity (inhibition zone diameter, mm)","pepsin; then boiled 5 min, agar-well diffusion vs MRSA GIM 1.771, mean ± SD, triplicate",0.0 ± 0.0 mm
same,Residual inhibitory activity (%),"pepsin; vs MRSA GIM 1.771, relative to control",0.00^∗ %
